Results: patent US10100022B2, “Sphingosine kinase inhibitors” (University of Virginia Patent Foundation, priority 2014, dated 2018)
Structures can show the parent of a compound that is named as a salt.

Key:
[1] = molecular target: T1, human sphingosine kinase type 1 (hSPHK1) (Homo sapiens, UniProt Q9NYA1); test: Sphingosine kinase assay, recombinant human SPHK1 ([32P]S1P product, scintillation counting); format: biochemical; conditions: read-out: activity hSPHK1 (range estimate of KI)
T1 construct: made in house; host or cells: Sf9 insect cells (baculovirus)
Description: (§1) Recombinant baculovirus encoding human sphingosine kinase type 1 (SPHK1) was used to infect Sf9 insect cells and after 2-5 days, cleared lysates were prepared and used without further purification. Human SPHK2, which was partially purified from baculovirus-infected Sf9 cell lysates, was purchased from a commercial source. Sphingosine kinase assays were performed using standard protocols. Product [^32P]S1P was recovered by binding to cation exchange paper and quantified by scintillation counting.

[2] = molecular target: T2, human sphingosine kinase type 2 (hSPHK2) (Homo sapiens, UniProt Q9NRA0); test: Sphingosine kinase assay, recombinant human SPHK2 ([32P]S1P product, scintillation counting); format: biochemical; conditions: read-out: activity hSPHK2 (range estimate of KI)
T2 construct: purchased; host or cells: Sf9 insect cells (baculovirus)
T2 sequence (Q9NRA0 1-654): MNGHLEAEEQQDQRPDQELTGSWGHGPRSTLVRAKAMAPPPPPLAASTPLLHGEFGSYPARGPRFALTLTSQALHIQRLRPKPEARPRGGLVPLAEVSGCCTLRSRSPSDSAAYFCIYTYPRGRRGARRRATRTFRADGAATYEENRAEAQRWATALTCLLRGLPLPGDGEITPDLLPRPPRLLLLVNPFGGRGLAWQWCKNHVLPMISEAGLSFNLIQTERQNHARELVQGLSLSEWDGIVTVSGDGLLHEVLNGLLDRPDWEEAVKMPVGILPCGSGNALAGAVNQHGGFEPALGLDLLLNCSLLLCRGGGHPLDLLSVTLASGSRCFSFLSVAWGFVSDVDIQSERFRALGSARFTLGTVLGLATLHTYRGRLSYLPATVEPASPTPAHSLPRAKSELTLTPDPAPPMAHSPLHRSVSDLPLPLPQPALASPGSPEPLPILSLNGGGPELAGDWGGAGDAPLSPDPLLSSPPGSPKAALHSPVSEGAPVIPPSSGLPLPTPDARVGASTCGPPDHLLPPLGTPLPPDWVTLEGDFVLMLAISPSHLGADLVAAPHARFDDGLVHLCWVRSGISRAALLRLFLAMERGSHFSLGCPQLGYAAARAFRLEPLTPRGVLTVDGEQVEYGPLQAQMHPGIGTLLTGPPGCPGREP
Description: as §1

T1 sequence (Q9NYA1 whole entry): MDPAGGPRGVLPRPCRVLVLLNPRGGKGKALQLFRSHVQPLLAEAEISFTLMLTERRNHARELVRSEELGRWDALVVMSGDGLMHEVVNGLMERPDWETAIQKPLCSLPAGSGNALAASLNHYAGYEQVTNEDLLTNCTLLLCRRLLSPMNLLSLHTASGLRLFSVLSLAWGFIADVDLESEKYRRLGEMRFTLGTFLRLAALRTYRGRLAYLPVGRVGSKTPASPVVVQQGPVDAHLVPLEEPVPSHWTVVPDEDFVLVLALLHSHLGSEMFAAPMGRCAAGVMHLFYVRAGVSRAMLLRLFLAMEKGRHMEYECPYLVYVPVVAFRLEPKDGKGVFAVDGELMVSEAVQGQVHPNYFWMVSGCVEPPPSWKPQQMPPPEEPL

Row | Structure (SMILES) | Ki [1] | Ki [2]
1 | N=C(N)N1CCC[C@H]1c1nc(-c2ccc3cc(OCc4cccc(Cl)c4)ccc3c2)no1 [Compound 68A, (S)-amino(2-(3-(6-((3-chlorobenzyl)oxy)naphthalen-2-yl)-1,2,4-oxadiazol-5-yl)pyrrolidin-1-yl)methaniminium chloride] | > 10 µM | > 10 µM
2 | N=C(N)N1CCC[C@H]1c1nc(-c2ccc(OCC/C=C/c3ccc(C(F)(F)F)cc3)c(C(F)(F)F)c2)no1 [Compound 91A, (S,E)-2-(3-(3-(trifluoromethyl)-4-((4-(4-(trifluoromethyl)phenyl)but-3-en-1-yl)oxy)phenyl)-1,2,4-oxadiazol-5-yl)pyrrolidine-1-carboximidamide hydrochloride] | > 10 µM | < 1 µM
3 | N=C(N)N1CCC[C@H]1c1nc(-c2ccc(CCC3CCCCC3)c(C(F)(F)F)c2)no1 [Compound 76A, (S)-amino(2-(3-(4-(2-cyclohexylethyl)-3-(trifluoromethyl)phenyl)-1,2,4-oxadiazol-5-yl)pyrrolidin-1-yl)methaniminium 2,2,2-trifluoroacetate] | > 10 µM | < 1 µM
4 | N=C(N)N1CCC[C@H]1c1nc(-c2ccc(OC/C=C/c3cccc(C(F)(F)F)c3)c(C(F)(F)F)c2)no1 [Compound 90A, (S,E)-amino(2-(3-(3-(trifluoromethyl)-4-((3-(3-(trifluoromethyl)phenyl)allyl)oxy)phenyl)-1,2,4-oxadiazol-5-yl)pyrrolidin-1-yl)methaniminium 2,2,2-trifluoroacetate] | > 10 µM | < 1 µM
5 | CCCCCCCCCc1ccc(-c2noc([C@@H]3CCCN3C(=N)N)n2)cc1C(F)(F)F [Compound 3B] | > 10 µM | < 1 µM
6 | N=C(N)N1CC[C@H](O)[C@H]1c1nc(-c2ccc(OCCCc3ccc(Cl)c(Cl)c3)c(C(F)(F)F)c2)no1 [Compound 28A] | 1 to 10 µM | < 1 µM
7 | N=C(N)N1CCC[C@H]1c1nc(-c2ccc3cc(OCc4ccccc4)ccc3c2)no1 [Compound 73A, (S)-amino(2-(3-(6-(benzyloxy)naphthalen-2-yl)-1,2,4-oxadiazol-5-yl)pyrrolidin-1-yl)methaniminium chloride] | > 10 µM | > 10 µM
8 | CCCCCCCCCn1ccc2c(-c3noc([C@@H]4CCCN4C(=N)N)n3)cccc21 [Compound 10B, (S)-amino(2-(3-(1-nonyl-1H-indol-4-yl)-1,2,4-oxadiazol-5-yl)pyrrolidin-1-yl)methaniminium chloride] | > 10 µM | < 1 µM
9 | N=C(N)N1CCC[C@H]1c1nc(-c2ccc3cc(OCc4ccc(Cl)cc4)ccc3c2)no1 [Compound 69A, (S)-amino(2-(3-(6-((4-chlorobenzyl)oxy)naphthalen-2-yl)-1,2,4-oxadiazol-5-yl)pyrrolidin-1-yl)methaniminium chloride] | > 10 µM | > 10 µM
10 | N=C(N)N1CCC[C@H]1c1nc(-c2ccc(OC/C=C/c3ccc(C(F)(F)F)cc3)c(C(F)(F)F)c2)no1 [Compound 88A, (S,E)-amino(2-(3-(3-(trifluoromethyl)-4-((3-(4-(trifluoromethyl)phenyl)allyl)oxy)phenyl)-1,2,4-oxadiazol-5-yl)pyrrolidin-1-yl)methaniminium 2,2,2-trifluoroacetate] | > 10 µM | < 1 µM
11 | N=C(N)N1CCC[C@H]1c1nc(-c2ccc(OCCCCc3ccc(C(F)(F)F)cc3)c(C(F)(F)F)c2)no1 [Compound 26A, (S)-amino(2-(3-(3-(trifluoromethyl)-4-(4-(4-(trifluoromethyl)phenyl)butoxy)phenyl)-1,2,4-oxadiazol-5-yl)pyrrolidin-1-yl)methaniminium chloride] | > 10 µM | < 1 µM
12 | CCCCCCCn1ccc2c(-c3noc([C@@H]4CCCN4C(=N)N)n3)cccc21 [Compound 8B, (S)-amino(2-(3-(1-heptyl-1H-indol-4-yl)-1,2,4-oxadiazol-5-yl)pyrrolidin-1-yl)methaniminium chloride] | > 10 µM | < 1 µM
13 | CCCCCCCCCCn1ccc2c(-c3noc([C@@H]4CCCN4C(=N)N)n3)cccc21 [Compound 11B, (S)-amino(2-(3-(1-decyl-1H-indol-4-yl)-1,2,4-oxadiazol-5-yl)pyrrolidin-1-yl)methaniminium chloride] | > 10 µM | < 1 µM
14 | CCCCCCCCOc1ccc(-c2noc([C@@H]3[C@@H](CO)CCN3C(=N)N)n2)cc1C(F)(F)F [Compound 20a, 2,2,2-trifluoroacetate] | < 1 µM | < 1 µM
15 | CCCCCCCCOc1c(C)cc(-c2noc([C@@H]3CCCN3C(=N)N)n2)cc1C [Compound 7B] | > 10 µM | < 1 µM
16 | N=C(N)N1CCC[C@H]1c1nc(-c2ccc(OCCCc3ccc(C(F)(F)F)cc3)c(C(F)(F)F)c2)no1 [Compound 32A, (S)-amino(2-(3-(3-(trifluoromethyl)-4-(3-(4-(trifluoromethyl)phenyl)propoxy)phenyl)-1,2,4-oxadiazol-5-yl)pyrrolidin-1-yl)methaniminium chloride] | > 10 µM | < 1 µM

More lines, now with the values ahead:

Row | Ki [1] | Ki [2] | Structure (SMILES)
17 | > 10 µM | 1 to 10 µM | N=C(N)N1CCC[C@H]1c1nc(-c2ccc3cc(OCc4ccc(-c5ccccc5)cc4)ccc3c2)no1 [Compound 72A, (S)-(2-(3-(6-([1,1′-biphenyl]-4-ylmethoxy)naphthalen-2-yl)-1,2,4-oxadiazol-5-yl)pyrrolidin-1-yl)(amino)methaniminium chloride]
18 | 1 to 10 µM | < 1 µM | N=C(N)N1CC[C@H](O)[C@H]1c1nc(-c2ccc(CCC3CCCC3)c(C(F)(F)F)c2)no1 [Compound 43A, (2S,3S)-2-(3-(4-(2-cyclopentylethyl)-3-(trifluoromethyl)phenyl)-1,2,4-oxadiazol-5-yl)-3-hydroxypyrrolidine-1-carboximidamide hydrochloride]
19 | > 10 µM | > 10 µM | CCCCCOc1ccc2cc(-c3noc([C@@H]4CCCN4C(=N)N)n3)ccc2c1 [Compound 12A, (S)-amino(2-(3-(6-(pentyloxy)naphthalen-2-yl)-1,2,4-oxadiazol-5-yl)pyrrolidin-1-yl)methaniminium chloride]
20 | 1 to 10 µM | < 1 µM | N=C(N)N1CC[C@H](O)[C@H]1c1nc(-c2ccc(OCCCc3ccc(C(F)(F)F)cc3)c(C(F)(F)F)c2)no1 [Compound 22A, amino((2S,3S)-3-hydroxy-2-(3-(3-(trifluoromethyl)-4-(3-(4-(trifluoromethyl)phenyl)propoxy)phenyl)-1,2,4-oxadiazol-5-yl)pyrrolidin-1-yl)methaniminium chloride]
21 | > 10 µM | > 10 µM | C=CCCOc1ccc(-c2noc([C@@H]3CCCN3C(=N)N)n2)cc1C(F)(F)F [Compound 79A, (S)-2-(3-(4-(but-3-en-1-yloxy)-3-(trifluoromethyl)phenyl)-1,2,4-oxadiazol-5-yl)pyrrolidine-1-carboximidamide hydrochloride]
22 | > 10 µM | < 1 µM | N=C(N)N1C[C@H](O)C[C@H]1c1nc(-c2ccc(OCCCc3ccc(C(F)(F)F)cc3)c(C(F)(F)F)c2)no1 [Compound 33A, amino((2S,4R)-4-hydroxy-2-(3-(3-(trifluoromethyl)-4-(3-(4-(trifluoromethyl)phenyl)propoxy)phenyl)-1,2,4-oxadiazol-5-yl)pyrrolidin-1-yl)methaniminium chloride]
23 | > 10 µM | < 1 µM | CC(C)(C)c1ccc(CCc2ccc(-c3noc([C@@H]4CCCN4C(=N)N)n3)cc2C(F)(F)F)cc1 [Compound 61A]
